Results: patent US9637483B2, “Heterocyclic compound” (TAKEDA PHARMACEUTICAL COMPANY LIMITED, priority 2013, dated 2017)

Key:
Format in all cases: biochemical
JAK1 = biological target: T1, JAK1 (Homo sapiens, UniProt P23458); assay: JAK1 enzyme inhibition test (LANCE method); details: 1 μM test compound; for inhibition at 1 µM: read-out: JAK1 enzyme inhibitory activity (%, 1 μM)
T1 construct: purchased Invitrogen
In short: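 Inhibition expressed against no-enzyme wells (100% inhibition), from time-resolved fluorescence at 665 nm after Eu-anti-phosphotyrosine antibody/EDTA detection. Kinase reaction ran 1 h at room temperature, pH 7.5 HEPES buffer, ULight-JAK1 substrate and ATP diluted to 300 nM and 150 μM before addition.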

JAK2 = biological target: T2, JAK2 (Homo sapiens, UniProt O60674); assay: JAK2 enzyme inhibition test (LANCE method); details: 1 μM test compound; for inhibition at 1 µM: read-out: JAK2 enzyme inhibitory activity (%, 1 μM)
T2 construct: purchased Invitrogen
T2 sequence (O60674 whole entry): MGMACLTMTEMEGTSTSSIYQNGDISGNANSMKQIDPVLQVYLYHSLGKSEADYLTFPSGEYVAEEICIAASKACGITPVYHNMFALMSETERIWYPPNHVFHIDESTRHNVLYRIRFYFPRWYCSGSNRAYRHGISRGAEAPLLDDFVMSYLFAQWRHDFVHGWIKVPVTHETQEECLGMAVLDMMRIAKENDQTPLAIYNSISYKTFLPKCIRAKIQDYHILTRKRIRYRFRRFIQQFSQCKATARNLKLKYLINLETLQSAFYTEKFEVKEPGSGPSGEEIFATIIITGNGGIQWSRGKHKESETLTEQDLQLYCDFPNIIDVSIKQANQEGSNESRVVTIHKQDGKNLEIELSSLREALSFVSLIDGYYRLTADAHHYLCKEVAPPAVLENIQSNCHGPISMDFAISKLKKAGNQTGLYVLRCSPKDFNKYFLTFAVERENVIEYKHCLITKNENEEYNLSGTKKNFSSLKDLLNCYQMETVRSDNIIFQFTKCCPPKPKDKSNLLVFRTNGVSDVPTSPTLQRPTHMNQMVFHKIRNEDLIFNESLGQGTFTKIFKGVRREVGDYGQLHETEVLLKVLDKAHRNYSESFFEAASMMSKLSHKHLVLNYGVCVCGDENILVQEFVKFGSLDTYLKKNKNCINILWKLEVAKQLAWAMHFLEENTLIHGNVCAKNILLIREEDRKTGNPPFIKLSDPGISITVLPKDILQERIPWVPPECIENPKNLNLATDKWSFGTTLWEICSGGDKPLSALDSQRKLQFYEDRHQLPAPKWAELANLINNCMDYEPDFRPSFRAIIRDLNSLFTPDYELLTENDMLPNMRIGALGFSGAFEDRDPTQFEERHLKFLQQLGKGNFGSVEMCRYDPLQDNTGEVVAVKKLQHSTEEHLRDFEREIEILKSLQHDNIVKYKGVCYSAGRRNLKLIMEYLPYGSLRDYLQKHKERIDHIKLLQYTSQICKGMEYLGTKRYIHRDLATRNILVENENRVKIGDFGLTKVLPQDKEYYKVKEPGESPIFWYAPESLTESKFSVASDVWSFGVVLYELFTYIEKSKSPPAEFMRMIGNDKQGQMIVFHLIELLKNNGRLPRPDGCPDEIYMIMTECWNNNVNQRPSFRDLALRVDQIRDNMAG
In short: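 TR-FRET (LANCE) read-out, ex 340/em 665 nm with 100 μs delay, after 1 hr room-temperature detection with europium anti-phosphotyrosine antibody and 20 mM EDTA. The preceding 1 hr kinase reaction combined JAK2, ULight-JAK1 substrate and ATP, added as 6 ng/mL, 300 nM and 45 μM solutions; enzyme-free wells defined 100% inhibition.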

TYK2 = biological target: T3, TYK2 (Homo sapiens, UniProt P29597); assay: TYK2 enzyme inhibition test (LANCE method); details: 1 μM test compound; for inhibition at 1 µM: read-out: TYK2 enzyme inhibitory activity (%, 1 μM)
T3 construct: purchased Invitrogen
T3 sequence (P29597 whole entry): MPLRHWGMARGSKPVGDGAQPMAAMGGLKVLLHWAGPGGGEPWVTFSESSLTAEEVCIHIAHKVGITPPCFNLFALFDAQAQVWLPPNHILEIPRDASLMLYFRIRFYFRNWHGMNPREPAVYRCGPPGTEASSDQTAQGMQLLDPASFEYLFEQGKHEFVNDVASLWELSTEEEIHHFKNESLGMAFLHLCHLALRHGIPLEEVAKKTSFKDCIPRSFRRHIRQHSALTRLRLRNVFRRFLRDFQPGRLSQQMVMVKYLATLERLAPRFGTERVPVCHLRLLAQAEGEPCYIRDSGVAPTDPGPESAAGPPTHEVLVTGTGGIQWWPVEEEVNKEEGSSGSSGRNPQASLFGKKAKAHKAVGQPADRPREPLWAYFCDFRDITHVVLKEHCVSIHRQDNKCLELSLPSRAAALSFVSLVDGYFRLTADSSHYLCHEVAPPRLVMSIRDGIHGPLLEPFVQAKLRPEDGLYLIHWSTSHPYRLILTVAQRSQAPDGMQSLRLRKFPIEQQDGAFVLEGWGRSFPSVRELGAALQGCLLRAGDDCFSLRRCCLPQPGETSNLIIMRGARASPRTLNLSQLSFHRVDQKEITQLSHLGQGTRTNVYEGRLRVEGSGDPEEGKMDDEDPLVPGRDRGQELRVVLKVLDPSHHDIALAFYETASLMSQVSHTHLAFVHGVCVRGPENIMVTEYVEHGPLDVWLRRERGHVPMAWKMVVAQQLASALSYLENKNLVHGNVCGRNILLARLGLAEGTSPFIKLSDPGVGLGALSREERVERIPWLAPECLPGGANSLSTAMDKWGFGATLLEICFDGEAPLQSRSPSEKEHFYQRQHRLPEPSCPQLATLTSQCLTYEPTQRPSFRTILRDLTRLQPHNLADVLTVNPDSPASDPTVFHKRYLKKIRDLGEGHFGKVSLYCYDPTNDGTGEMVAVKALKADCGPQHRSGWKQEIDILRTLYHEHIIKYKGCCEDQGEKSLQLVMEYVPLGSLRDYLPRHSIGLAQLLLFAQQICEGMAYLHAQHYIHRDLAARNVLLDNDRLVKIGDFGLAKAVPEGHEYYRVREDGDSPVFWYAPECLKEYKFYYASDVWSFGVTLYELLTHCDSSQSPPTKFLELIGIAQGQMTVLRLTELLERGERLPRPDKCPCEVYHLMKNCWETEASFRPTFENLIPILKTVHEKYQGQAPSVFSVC
In short: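 TR-FRET (LANCE) readout: after 1 h room-temperature kinase reaction, EDTA plus 4 nM Eu-labelled anti-phosphotyrosine antibody added, signal at 665 nm (340 nm excitation). Reaction combined TYK2, ULight-JAK1 substrate and ATP, prepared at 375 ng/mL, 300 nM and 30 μM before addition, in pH 7.5 HEPES/MgCl2 buffer; enzyme-free wells define full inhibition.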

JAK3 = biological target: T4, JAK3 (Homo sapiens, UniProt P52333); assay: JAK3 enzyme inhibition test (LANCE method); details: 1 μM test compound; for inhibition at 1 µM: read-out: JAK3 enzyme inhibitory activity (%, 1 μM)
T4 construct: purchased Invitrogen
T4 sequence (P52333 1-1124): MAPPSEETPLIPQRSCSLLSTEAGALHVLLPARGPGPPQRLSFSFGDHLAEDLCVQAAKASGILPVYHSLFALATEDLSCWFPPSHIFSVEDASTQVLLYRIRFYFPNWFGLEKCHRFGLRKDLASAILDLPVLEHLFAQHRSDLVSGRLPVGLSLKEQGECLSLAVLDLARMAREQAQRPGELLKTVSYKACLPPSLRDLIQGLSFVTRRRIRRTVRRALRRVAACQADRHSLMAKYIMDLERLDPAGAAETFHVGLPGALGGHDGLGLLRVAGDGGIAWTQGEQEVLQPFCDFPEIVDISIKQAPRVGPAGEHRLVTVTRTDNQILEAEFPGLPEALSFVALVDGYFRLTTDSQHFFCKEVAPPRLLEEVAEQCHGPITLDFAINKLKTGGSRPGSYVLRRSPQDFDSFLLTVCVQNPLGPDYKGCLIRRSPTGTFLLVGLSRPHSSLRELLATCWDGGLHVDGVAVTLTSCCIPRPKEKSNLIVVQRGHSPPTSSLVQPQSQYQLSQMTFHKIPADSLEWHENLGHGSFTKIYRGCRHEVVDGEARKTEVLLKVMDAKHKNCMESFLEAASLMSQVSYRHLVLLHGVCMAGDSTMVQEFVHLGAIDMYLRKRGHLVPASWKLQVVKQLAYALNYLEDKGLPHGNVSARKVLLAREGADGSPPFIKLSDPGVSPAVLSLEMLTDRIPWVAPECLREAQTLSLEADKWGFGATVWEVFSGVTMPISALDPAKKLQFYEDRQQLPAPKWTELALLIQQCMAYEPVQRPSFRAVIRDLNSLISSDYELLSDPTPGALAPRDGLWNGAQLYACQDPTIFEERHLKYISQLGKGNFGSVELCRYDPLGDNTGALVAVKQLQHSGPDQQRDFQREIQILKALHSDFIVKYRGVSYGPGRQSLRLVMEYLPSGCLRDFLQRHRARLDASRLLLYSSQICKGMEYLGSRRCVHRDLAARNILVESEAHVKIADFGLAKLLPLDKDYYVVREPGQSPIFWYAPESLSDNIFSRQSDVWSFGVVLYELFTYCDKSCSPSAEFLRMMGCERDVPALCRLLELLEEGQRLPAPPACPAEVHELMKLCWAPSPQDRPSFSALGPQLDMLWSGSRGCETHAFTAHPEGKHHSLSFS
In short: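 TR-FRET (LANCE) read: 1 h room-temperature reaction, EDTA quench, Eu-anti-phosphotyrosine antibody, emission 665 nm after 340 nm excitation. Added solutions held 12 ng/mL JAK3, 300 nM ULight-JAK1 substrate and 15 μM ATP (pH 7.5 HEPES). Activity expressed against no-enzyme wells defined as full inhibition.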

T1 sequence (P23458 whole entry): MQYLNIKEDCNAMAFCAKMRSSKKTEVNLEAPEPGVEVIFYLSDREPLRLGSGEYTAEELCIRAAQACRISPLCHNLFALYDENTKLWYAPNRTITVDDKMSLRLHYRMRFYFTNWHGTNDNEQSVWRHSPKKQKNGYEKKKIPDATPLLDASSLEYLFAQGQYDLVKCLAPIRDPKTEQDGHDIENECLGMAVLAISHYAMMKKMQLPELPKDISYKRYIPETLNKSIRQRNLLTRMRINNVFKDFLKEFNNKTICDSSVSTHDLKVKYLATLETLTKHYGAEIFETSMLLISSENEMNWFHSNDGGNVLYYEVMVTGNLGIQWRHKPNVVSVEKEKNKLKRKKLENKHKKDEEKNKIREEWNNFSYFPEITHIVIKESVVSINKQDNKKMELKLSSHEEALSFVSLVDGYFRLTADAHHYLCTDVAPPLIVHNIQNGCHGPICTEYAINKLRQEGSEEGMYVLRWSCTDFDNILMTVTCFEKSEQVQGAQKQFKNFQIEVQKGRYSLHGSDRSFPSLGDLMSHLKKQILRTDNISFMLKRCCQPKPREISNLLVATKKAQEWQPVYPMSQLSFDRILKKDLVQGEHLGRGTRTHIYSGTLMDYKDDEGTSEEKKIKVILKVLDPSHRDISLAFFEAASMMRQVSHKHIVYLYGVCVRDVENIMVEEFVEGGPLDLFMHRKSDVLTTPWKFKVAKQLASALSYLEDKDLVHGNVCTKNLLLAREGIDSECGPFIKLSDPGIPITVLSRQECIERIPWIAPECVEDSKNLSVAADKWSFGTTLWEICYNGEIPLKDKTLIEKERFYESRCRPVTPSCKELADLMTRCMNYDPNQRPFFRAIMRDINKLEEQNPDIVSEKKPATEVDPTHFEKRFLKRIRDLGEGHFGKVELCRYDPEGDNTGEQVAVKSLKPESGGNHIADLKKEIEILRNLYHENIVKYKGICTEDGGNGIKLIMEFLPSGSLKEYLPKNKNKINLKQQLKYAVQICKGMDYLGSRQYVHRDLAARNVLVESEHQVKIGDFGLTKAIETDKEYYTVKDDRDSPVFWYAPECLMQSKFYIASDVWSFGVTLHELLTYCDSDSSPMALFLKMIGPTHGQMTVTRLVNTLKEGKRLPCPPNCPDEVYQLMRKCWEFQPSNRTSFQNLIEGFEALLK

inhibition at 1 µM (JAK1) [%] | inhibition at 1 µM (JAK2) [%] | inhibition at 1 µM (TYK2) [%] | inhibition at 1 µM (JAK3) [%] | JAK1 enzyme inhibitory activity (%, 1 μM) (JAK1) [%] | JAK2 enzyme inhibitory activity (%, 1 μM) (JAK2) [%] | TYK2 enzyme inhibitory activity (%, 1 μM) (TYK2) [%] | JAK3 enzyme inhibitory activity (%, 1 μM) (JAK3) [%] | Structure (SMILES)
97 | 99 | 100 | 99 |  |  |  |  | CC(C)[C@H](C)n1cc(-c2cc(N3CCC(F)(F)C3)n(C)n2)c2[nH]nc(N)c2c1=O [Example 106, 3-amino-7-(5-(3,3-difluoropyrrolidin-1-yl)-1-methyl-1H-pyrazol-3-yl)-5-((2S)-3-methylbutan-2-yl)-1,5-dihydro-4H-pyrazolo[4,3-c]pyridin-4-one]
97 | 98 | 100 | 99 |  |  |  |  | CC(C)[C@H](C)n1cc(-c2cc(N3CCN(S(=O)(=O)C4CC4)CC3)n(C)n2)c2[nH]nc(N)c2c1=O [Example 107, 3-amino-7-(5-(4-(cyclopropylsulfonyl)piperazin-1-yl)-1-methyl-1H-pyrazol-3-yl)-5-((2S)-3-methylbutan-2-yl)-1,5-dihydro-4H-pyrazolo[4,3-c]pyridin-4-one]
98 | 98 | 100 | 99 |  |  |  |  | CC(C)[C@H](C)n1cc(-c2cc(N3CCN(S(C)(=O)=O)CC3)n(C)n2)c2[nH]nc(N)c2c1=O [Example 108, 3-amino-5-((2S)-3-methylbutan-2-yl)-7-(1-methyl-5-(4-(methylsulfonyl)piperazin-1-yl)-1H-pyrazol-3-yl)-1,5-dihydro-4H-pyrazolo[4,3-c]pyridin-4-one]
98 | 99 | 99 | 99 |  |  |  |  | COC(C)(C)c1cc(-c2cn([C@@H](C)C(C)C)c(=O)c3c(N)n[nH]c23)nn1C [Example 109, 3-amino-7-(5-(2-methoxypropan-2-yl)-1-methyl-1H-pyrazol-3-yl)-5-((2S)-3-methylbutan-2-yl)-1,5-dihydro-4H-pyrazolo[4,3-c]pyridin-4-one]
89 | 99 | 100 | 99 |  |  |  |  | COC1(c2cc(-c3cn([C@@H](C)C(C)C)c(=O)c4c(N)n[nH]c34)nn2C)CCS(=O)(=O)CC1 [Example 110, 3-amino-7-(5-(4-methoxy-1,1-dioxidotetrahydro-2H-thiopyran-4-yl)-1-methyl-1H-pyrazol-3-yl)-5-((2S)-3-methylbutan-2-yl)-1,5-dihydro-4H-pyrazolo[4,3-c]pyridin-4-one]
83 | 97 | 100 | 98 |  |  |  |  | COC1(c2cc(-c3cn([C@@H](C)C(C)C)c(=O)c4c(N)n[nH]c34)nn2C)CN(C(=O)C(C)C)C1 [Example 111, 3-amino-7-(5-(1-isobutyryl-3-methoxyazetidin-3-yl)-1-methyl-1H-pyrazol-3-yl)-5-((2S)-3-methylbutan-2-yl)-1,5-dihydro-4H-pyrazolo[4,3-c]pyridin-4-one]
 |  | 99 | 99 | 97 | 98 |  |  | CC(C)C(C#N)n1cc(-c2cc(N3CCOCC3)n(C)n2)c2[nH]nc(N)c2c1=O (stereo not drawn) [Example 113, 2-(3-amino-7-(1-methyl-5-(morpholin-4-yl)-1H-pyrazol-3-yl)-4-oxo-1,4-dihydro-5H-pyrazolo[4,3-c]pyridin-5-yl)-3-methylbutanenitrile]
 |  |  |  | 68 | 74 | 95 | 84 | CC(C)C(C#N)n1cc(-c2cc(N3CCOCC3)n(C)n2)c2[nH]nc(N)c2c1=O (stereo not drawn) [Example 114, 2-(3-amino-7-(1-methyl-5-(morpholin-4-yl)-1H-pyrazol-3-yl)-4-oxo-1,4-dihydro-5H-pyrazolo[4,3-c]pyridin-5-yl)-3-methylbutanenitrile]
93 | 91 | 100 | 99 |  |  |  |  | CC(C)C(C1CC1)n1cc(-c2cc(N3CCOCC3)n(C)n2)c2[nH]nc(N)c2c1=O (stereo not drawn) [Example 115, 3-amino-5-(1-cyclopropyl-2-methylpropyl)-7-(1-methyl-5-(morpholin-4-yl)-1H-pyrazol-3-yl)-1,5-dihydro-4H-pyrazolo[4,3-c]pyridin-4-one]
85 | 85 | 99 | 97 |  |  |  |  | CC1CCCCC1n1cc(-c2cc(C(C)(C)O)n(C)n2)c2[nH]nc(N)c2c1=O (stereo not drawn) [Example 117, 3-amino-7-(5-(2-hydroxypropan-2-yl)-1-methyl-1H-pyrazol-3-yl)-5-(2-methylcyclohexyl)-1,5-dihydro-4H-pyrazolo[4,3-c]pyridin-4-one]
 |  |  |  | 98 | 97 | 100 | 99 | CC1CCCCC1n1cc(-c2cc(C(C)(C)O)n(C)n2)c2[nH]nc(N)c2c1=O (stereo not drawn) [Example 118, 3-amino-7-(5-(2-hydroxypropan-2-yl)-1-methyl-1H-pyrazol-3-yl)-5-(2-methylcyclohexyl)-1,5-dihydro-4H-pyrazolo[4,3-c]pyridin-4-one]
 |  |  |  | 99 | 98 | 100 | 100 | CC1CCCCC1n1cc(-c2cc(C(C)(C)O)n(C)n2)c2[nH]nc(N)c2c1=O (stereo not drawn) [Example 119, 3-amino-7-(5-(2-hydroxypropan-2-yl)-1-methyl-1H-pyrazol-3-yl)-5-(2-methylcyclohexyl)-1,5-dihydro-4H-pyrazolo[4,3-c]pyridin-4-one]
 |  |  |  | 100 | 100 | 101 | 100 | CC1CCCCC1n1cc(-c2cc(C(C)(C)O)n(C)n2)c2[nH]nc(N)c2c1=O (stereo not drawn) [Example 120, 3-amino-7-(5-(2-hydroxypropan-2-yl)-1-methyl-1H-pyrazol-3-yl)-5-(2-methylcyclohexyl)-1,5-dihydro-4H-pyrazolo[4,3-c]pyridin-4-one]
98 | 98 | 100 | 97 |  |  |  |  | COC(C)(C)c1cc(-c2cn(-c3c(F)cccc3C#N)c(=O)c3c(N)n[nH]c23)nn1C [Example 121, 2-(3-amino-7-(5-(2-methoxypropan-2-yl)-1-methyl-1H-pyrazol-3-yl)-4-oxo-1,4-dihydro-5H-pyrazolo[4,3-c]pyridin-5-yl)-3-fluorobenzonitrile]
97 | 93 | 101 | 97 |  |  |  |  | CC(C)N(C)c1cc(-c2cn(-c3c(F)cccc3C#N)c(=O)c3c(N)n[nH]c23)nn1C [Example 122, 2-(3-amino-7-(5-(isopropyl(methyl)amino)-1-methyl-1H-pyrazol-3-yl)-4-oxo-1,4-dihydro-5H-pyrazolo[4,3-c]pyridin-5-yl)-3-fluorobenzonitrile]
